Activity calls are given as the source filed them. No stated cut-off is given here; in the data, actives have a measured IC50 and inactives only a lower limit.
target: Envelope glycoprotein gp160 (Human immunodeficiency virus 1, UniProt Q6QLK5); assay: inhibitors of HIV fusion peptide binding, primary screen, biochemical, uHTS, fluorescence dequenching (AID 1986)
Sequence (Q6QLK5 whole entry, the tested form may be a part): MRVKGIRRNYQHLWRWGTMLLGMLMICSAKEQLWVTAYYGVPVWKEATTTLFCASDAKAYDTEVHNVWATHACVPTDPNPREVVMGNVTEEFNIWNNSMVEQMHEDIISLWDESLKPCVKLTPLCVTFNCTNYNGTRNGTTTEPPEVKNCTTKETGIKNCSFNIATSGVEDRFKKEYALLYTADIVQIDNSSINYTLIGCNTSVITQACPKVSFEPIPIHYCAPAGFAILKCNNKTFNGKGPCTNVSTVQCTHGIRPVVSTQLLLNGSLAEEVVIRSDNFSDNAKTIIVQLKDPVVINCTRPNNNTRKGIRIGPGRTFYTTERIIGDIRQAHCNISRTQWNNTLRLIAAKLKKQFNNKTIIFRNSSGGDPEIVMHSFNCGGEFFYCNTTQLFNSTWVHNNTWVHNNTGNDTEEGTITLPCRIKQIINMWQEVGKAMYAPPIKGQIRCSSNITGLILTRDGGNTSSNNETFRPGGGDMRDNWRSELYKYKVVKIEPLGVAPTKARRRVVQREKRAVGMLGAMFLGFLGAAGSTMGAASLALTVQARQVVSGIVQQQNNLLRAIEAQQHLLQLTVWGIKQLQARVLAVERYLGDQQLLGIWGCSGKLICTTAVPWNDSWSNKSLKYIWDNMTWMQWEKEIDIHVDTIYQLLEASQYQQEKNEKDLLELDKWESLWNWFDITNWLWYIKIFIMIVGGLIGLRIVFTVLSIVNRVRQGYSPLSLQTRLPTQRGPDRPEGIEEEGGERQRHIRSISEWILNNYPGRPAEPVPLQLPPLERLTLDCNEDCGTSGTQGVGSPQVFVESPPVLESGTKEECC

SMILES	IC50
CCOc1cc(/C=C2/C(=N)N3C(=NC2=O)SN=C3S(=O)(=O)C(C)C)ccc1OC(=O)c1ccco1	14.8 µM (active)
CCc1nnc(NS(=O)(=O)c2ccc(NC(=O)/C=C/c3ccccc3Cl)cc2)s1	23.7 µM (active)
COc1ccc(C(=O)COC(=O)c2ccccc2NS(=O)(=O)c2ccc(O)c([N+](=O)[O-])c2)cc1	16.4 µM (active)
N=C1/C(=C\c2ccc(-c3cccc(C(=O)O)c3)o2)C(=O)N=C2SC=C(c3ccccc3)N12	6.64 µM (active)
Cc1noc(NS(=O)(=O)c2ccc(NC(=O)Nc3ccc(Cl)c(Cl)c3)cc2)c1C	19.8 µM (active)
CC(C)S(=O)(=O)C1=NSC2=NC(=O)/C(=C\c3ccc(OC(=O)c4ccco4)cc3)C(=N)N21	26.7 µM (active)
O=C(O)c1cc(NC(=O)c2ccc(Br)cc2)cc(NC(=O)c2ccc(Br)cc2)c1	29.4 µM (active)
Brc1ccc(N/N=C(/N=Nc2nn[nH]n2)c2ccccc2)cc1	29.5 µM (active)
